Activity and EC50 data for 2 compounds are collected here from ChEMBL document CHEMBL3739375, “Identifying farnesoid X receptor agonists by naive Bayesian and recursive partitioning approaches” (Medchemcomm, 2015).

Experiment [1] addresses T1, Bile acid receptor (Homo sapiens) (UniProt Q96RI1).
T1 sequence (whole entry): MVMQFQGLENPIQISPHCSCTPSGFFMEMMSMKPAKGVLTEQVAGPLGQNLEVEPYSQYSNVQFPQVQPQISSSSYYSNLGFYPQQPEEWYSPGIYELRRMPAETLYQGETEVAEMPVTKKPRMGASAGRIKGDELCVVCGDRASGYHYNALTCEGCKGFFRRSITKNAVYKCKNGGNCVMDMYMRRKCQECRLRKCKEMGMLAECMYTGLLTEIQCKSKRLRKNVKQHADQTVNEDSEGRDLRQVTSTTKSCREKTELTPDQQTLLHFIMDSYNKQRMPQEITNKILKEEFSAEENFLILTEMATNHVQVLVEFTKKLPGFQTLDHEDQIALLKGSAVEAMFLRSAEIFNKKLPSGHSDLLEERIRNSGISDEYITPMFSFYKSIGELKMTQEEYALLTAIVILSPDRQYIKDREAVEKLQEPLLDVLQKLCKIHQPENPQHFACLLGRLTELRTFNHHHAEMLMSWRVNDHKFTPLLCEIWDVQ
Put plainly: (§1) Agonist activity at human farnesoid-X-receptor expressed in HEK293T cells co-expressing human RXRalpha assessed as receptor activation after 20 hrs by dual luciferase reporter assay. Type of experiment: cell-based. The conditions noted are these: HEK-293T.

A further experiment has as its target T2, Bile acid receptor (Homo sapiens, UniProt Q96RI1).
T2 sequence (Q96RI1 whole entry): T1 sequence (whole entry)
The experiment is described as §1. In kind it is cell-based, HEK-293T.

pEC50: −log10 of the molar value.

For orientation: pEC50 means the EC50 on a negative log10 scale, so that one unit is a factor of ten. Consider `CC(C)(C)OC(=O)/N=C(/NCCc1cc(NC(=O)Nc2ccncc2)no1)NC(=O)OC(C)(C)C`, for which, in experiment [1], the Activity result was “Dose-dependent effect”. In addition, on Bile acid receptor, the pEC50 was 4.52.
In the same order, the values of `CC(C)(C)OC(=O)/N=C(\NCCCc1cc(C(=O)NCc2ccncc2)no1)NC(=O)OC(C)(C)C` are “Dose-dependent effect” and 4.81.
